Assay results published in paper PMC10539361, “Allosteric modulation of the fish taste receptor type 1 (T1R) family by the extracellular chloride ion” (Scientific Reports, 2023).

Key:
mfT1R2b/mfT1R3 = assay: Ca2+ mobilization dose-response assay, stable cells expressing mfT1R2b/mfT1R3 with G16gust44; conditions: 10 mM vs 141.4 mM Cl- buffer
Experimental: (§1) The buffers with lower Cl^− were prepared by progressively replacing NaCl, KCl, CaCl2 and MgCl2 in the buffer with gluconate equivalents[20]. The pH was adjusted to 7.4 with NaOH. Ligands were diluted with the assay buffers at the desired concentrations.
(§2) Measurements of the responses of the cells by cell-based assay based on the intracellular Ca^2+ mobilization were carried out as described previously with some modifications[20],[34],[46],[47]. […] The cells were seeded in 96-well plates (clear-bottomed CellBIND surface plate, Corning, Glendale, AZ, USA) coated with ε-poly-L-lysine (Cosmo Bio, Tokyo, Japan) at approximately 70,000 cells per well. After 20 h, the medium was removed and replaced with high Cl^− buffer. […] Fluorescence changes (i.e., excitation at 485 nm and emission at 525 nm with a cutoff at 515 nm) were monitored at 2 s intervals. […] The response of each well was determined as ∆RFU (delta relative fluorescent units), which was calculated as (maximum fluorescent value)—(minimum fluorescent value). […] Dose‒response fitting curves were calculated by Prism 9 (GraphPad Software, San Diego, CA) using nonlinear regression (log(agonist) vs. response—variable slope), based on the integrated data from the several independent experiments.

mfT1R2b E260K/mfT1R3 = format: cell-based, medaka fish; conditions: 10 mM vs high Cl- buffer
Experimental: as §1, §2

mfT1R2b E260A/mfT1R3 = format: cell-based, medaka fish; conditions: 10 mM vs high Cl- buffer
Experimental: as §1, §2

mfT1R2b/mfT1R3 T105E = mfT1R2b/mfT1R3 T105E (Oryzias latipes, UniProt Q2MHK2+Q2MHK4, Q2MHK2:T105E); assay: cell-based; conditions: EC50, [Cl-]o=10 mM; unit inferred
Experimental: as §1
Measurements of the responses of the cells by cell-based assay based on the intracellular Ca^2+ mobilization were carried out as described previously with some modifications[20],[34],[46],[47]. Cell lines stably expressing T1R2, T1R3 and chimeric G-protein α-subunit, G16gust44[48], were constructed using the Flp-In pcDNA5/FRT complete system (Thermo Fisher Scientific, Waltham, MA, USA) described in our previous studies[34],[46]. […] Fluorescence changes (i.e., excitation at 485 nm and emission at 525 nm with a cutoff at 515 nm) were monitored at 2 s intervals. […] The response of each well was determined as ∆RFU (delta relative fluorescent units), which was calculated as (maximum fluorescent value)—(minimum fluorescent value). […] Dose‒response fitting curves were calculated by Prism 9 (GraphPad Software, San Diego, CA) using nonlinear regression (log(agonist) vs. response—variable slope), based on the integrated data from the several independent experiments.

zfT1R2b/zfT1R3 [1] = biological target: T1, zfT1R2b/zfT1R3 (Danio rerio, UniProt A0A8M1NDZ5+Q2MHK9); assay: Ca2+ mobilization dose-response assay, stable cells expressing zfT1R2b/zfT1R3 with G16gust44
T1 sequence (A0A8M1NDZ5 18-823): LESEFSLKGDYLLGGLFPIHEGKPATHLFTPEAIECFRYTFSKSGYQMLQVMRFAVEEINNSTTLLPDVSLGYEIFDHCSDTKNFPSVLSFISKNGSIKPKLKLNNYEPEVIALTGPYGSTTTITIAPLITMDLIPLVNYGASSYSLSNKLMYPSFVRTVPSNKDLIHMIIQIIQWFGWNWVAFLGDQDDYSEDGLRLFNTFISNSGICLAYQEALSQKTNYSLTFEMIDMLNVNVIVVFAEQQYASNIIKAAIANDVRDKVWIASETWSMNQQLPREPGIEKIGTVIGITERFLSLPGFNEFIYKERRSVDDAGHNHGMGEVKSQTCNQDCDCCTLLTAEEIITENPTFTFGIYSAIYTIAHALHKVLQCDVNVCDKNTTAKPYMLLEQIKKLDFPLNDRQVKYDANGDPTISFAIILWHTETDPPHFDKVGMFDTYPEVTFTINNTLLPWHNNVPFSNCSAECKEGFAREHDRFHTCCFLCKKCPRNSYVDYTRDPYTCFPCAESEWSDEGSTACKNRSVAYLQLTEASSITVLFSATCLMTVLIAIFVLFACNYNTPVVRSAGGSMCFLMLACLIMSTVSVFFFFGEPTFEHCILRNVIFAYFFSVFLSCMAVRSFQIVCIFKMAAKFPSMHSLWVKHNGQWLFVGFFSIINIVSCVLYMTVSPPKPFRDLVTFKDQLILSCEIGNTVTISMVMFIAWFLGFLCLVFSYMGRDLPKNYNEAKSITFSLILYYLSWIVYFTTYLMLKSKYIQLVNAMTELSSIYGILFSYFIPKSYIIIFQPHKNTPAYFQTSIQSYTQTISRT
T1 sequence (Q2MHK9 25-850): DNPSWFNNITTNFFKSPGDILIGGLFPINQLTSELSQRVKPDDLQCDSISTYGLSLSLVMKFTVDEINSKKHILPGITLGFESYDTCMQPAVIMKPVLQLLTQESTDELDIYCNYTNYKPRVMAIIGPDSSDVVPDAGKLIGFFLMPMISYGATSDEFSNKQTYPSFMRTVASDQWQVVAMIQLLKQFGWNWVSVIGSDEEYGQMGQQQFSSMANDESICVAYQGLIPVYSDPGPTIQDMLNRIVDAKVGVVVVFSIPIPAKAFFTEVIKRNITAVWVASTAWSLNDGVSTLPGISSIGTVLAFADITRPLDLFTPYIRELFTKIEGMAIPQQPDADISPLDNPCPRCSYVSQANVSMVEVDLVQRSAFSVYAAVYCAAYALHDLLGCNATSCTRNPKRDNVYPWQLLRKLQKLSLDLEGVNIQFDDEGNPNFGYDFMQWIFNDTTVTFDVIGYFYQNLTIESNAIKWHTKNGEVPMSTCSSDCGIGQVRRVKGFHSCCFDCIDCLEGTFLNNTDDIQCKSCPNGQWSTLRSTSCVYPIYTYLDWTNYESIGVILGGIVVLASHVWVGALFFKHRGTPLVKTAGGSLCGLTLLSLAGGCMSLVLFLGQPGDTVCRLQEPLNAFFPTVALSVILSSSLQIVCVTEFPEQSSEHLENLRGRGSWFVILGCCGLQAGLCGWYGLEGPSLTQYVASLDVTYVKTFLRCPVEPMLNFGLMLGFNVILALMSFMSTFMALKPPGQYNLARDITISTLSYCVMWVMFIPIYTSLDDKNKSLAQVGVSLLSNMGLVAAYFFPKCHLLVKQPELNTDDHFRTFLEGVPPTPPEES
Experimental: as §1
(§3) Measurements of the responses of the cells by cell-based assay based on the intracellular Ca^2+ mobilization were carried out as described previously with some modifications[20],[34],[46],[47]. […] The cells were seeded in 96-well plates (clear-bottomed CellBIND surface plate, Corning, Glendale, AZ, USA) coated with ε-poly-L-lysine (Cosmo Bio, Tokyo, Japan) at approximately 70,000 cells per well. After 20 h, the medium was removed and replaced with high Cl^− buffer. After 3 h 30 min incubation at 27 °C, cells were loaded with 5 µM calcium-indicator dye Fluo-8 AM (AAT Bioquest, Sunnyvale, CA, USA) diluted in high Cl^− buffer. After incubation for 30 min at 27 °C, the cells were washed with buffers containing appropriate concentrations of Cl^−. The cellular assay was initiated after 3–5 min of resting and was completed within 5 min. The measurements were made using FlexStation 3 (Molecular Devices, Sunnyvale, CA, USA) at 27 °C. Fluorescence changes (i.e., excitation at 485 nm and emission at 525 nm with a cutoff at 515 nm) were monitored at 2 s intervals. A 100-µL aliquot of assay buffer supplemented with 2 × ligands was added at 20 s, and scanning was continued for an additional 40 s. The response of each well was determined as ∆RFU (delta relative fluorescent units), which was calculated as (maximum fluorescent value)—(minimum fluorescent value). […] Such normalized data from more than three independent experiments are reported as the mean ± standard error of the mean (SEM). Dose‒response fitting curves were calculated by Prism 9 (GraphPad Software, San Diego, CA) using nonlinear regression (log(agonist) vs. response—variable slope), based on the integrated data from the several independent experiments.

zfT1R2b/zfT1R3 [2] = biological target: T1, zfT1R2b/zfT1R3; assay: cell-based
Experimental: as §1, §3

zfT1R2b/zfT1R3 [3] = biological target: T1, zfT1R2b/zfT1R3; assay: Effect of anions, cations and osmotic pressure on cellular responses, cells in 10 mM Cl- buffer, zfT1R2b/zfT1R3; format: cell-based, zebrafish; conditions: coapplied with 2 mM L-Ala, increasing salt concentration
Experimental: Cells were seeded in 96-well plates coated with ε-poly-L-lysine at approximately 70,000 cells per well. […] Fluorescence changes were monitored at 2 s intervals, as described above. […] Three independent experiments were conducted for each receptor, and representative results are shown as the mean ± SEM (n = 3 replicates). Statistical tests were conducted using KyPlot version 6.0 (KyensLab Inc., Tokyo, Japan). Statistical significance was set at p < 0.05.

mfT1R2b/mfT1R3 T105E, sequence (Q2MHK2 entry or part of it T105E): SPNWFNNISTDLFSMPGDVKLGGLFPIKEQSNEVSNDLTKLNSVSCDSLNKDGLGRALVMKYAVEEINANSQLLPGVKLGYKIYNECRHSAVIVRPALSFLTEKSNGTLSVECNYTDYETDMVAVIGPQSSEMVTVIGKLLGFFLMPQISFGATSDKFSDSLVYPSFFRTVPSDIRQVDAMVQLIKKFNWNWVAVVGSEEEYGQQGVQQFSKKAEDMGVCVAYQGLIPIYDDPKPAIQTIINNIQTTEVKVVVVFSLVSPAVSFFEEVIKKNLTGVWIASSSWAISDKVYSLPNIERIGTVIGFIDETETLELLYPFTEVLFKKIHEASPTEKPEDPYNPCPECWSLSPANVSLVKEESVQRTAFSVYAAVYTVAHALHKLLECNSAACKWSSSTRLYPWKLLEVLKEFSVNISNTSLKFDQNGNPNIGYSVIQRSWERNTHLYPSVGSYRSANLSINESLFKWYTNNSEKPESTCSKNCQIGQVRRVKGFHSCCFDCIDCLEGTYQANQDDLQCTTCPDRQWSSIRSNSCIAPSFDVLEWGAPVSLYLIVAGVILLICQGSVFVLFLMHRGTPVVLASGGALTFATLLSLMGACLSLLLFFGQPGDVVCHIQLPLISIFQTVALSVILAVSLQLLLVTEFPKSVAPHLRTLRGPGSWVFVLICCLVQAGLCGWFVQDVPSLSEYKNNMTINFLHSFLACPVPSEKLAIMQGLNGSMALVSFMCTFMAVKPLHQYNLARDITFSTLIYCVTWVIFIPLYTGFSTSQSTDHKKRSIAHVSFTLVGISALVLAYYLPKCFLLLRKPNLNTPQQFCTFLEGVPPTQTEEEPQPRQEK
mfT1R2b/mfT1R3 T105E, sequence (Q2MHK4 entry or part of it): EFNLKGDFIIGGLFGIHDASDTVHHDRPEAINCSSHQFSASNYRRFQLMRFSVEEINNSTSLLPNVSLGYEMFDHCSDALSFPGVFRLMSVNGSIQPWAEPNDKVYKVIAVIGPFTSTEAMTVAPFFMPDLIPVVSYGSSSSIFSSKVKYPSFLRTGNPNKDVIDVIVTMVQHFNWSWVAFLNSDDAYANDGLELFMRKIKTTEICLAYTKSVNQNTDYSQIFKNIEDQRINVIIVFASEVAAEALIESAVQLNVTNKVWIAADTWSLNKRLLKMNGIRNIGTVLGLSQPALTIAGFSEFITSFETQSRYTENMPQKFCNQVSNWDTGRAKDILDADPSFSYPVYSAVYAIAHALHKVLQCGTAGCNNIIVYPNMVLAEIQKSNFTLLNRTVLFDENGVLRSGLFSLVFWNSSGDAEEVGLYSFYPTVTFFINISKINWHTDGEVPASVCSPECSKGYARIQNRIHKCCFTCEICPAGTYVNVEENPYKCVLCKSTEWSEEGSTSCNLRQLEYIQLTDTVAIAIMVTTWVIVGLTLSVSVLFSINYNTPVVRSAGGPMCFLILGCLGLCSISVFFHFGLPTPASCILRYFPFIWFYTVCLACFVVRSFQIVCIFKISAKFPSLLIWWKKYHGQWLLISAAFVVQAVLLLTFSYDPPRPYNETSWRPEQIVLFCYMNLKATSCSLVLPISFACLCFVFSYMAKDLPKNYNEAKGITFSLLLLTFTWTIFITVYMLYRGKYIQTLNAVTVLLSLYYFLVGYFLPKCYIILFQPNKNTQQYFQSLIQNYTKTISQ

Structure (SMILES)	effect of anionic buffer composition on sensitivity (mfT1R2b/mfT1R3)	effect of [Cl-]o on sensitivity (mfT1R2b E260K/mfT1R3)	effect of [Cl-]o on sensitivity (mfT1R2b E260A/mfT1R3)	EC50 (mfT1R2b/mfT1R3 T105E)	EC50 in 10 mM Cl- buffer relative to high Cl- buffer (zfT1R2b/zfT1R3 [1]; 10 mM vs 141.4 mM Cl- buffer)	EC50 (zfT1R2b/zfT1R3 [1]; EC50, [Cl-]o=10 mM, unit inferred)	EC50 (zfT1R2b/zfT1R3 [2])	response to fixed concentration of L-Ala on coapplication (zfT1R2b/zfT1R3 [3])	[Cl-]o range in which a decrease in sensitivity was observed (zfT1R2b/zfT1R3 [1]; agonist L-Ala, buffers with 10-141.4 mM Cl-)
C[C@H](N)C(=O)O [L-Ala, L-alanine]	hardly affected	hardly affected	hardly affected	11.4 mM	approximately half	1.29 mM	2.9 mM		
[Cl-].[Na+] [NaCl]								decreased	40 to 141.4 mM
